Results as given in patent US20230270828A1, “COMPOSITION FOR USE IN THE TREATMENT OF VIRAL INFECTIONS” (BICT S.R.L., priority 2020, published 2023).
Where two headings read alike, the source gives them in different places. Marks after values point to notes of the source that are not given here.

Legend:
[1] = test system: Vero cells (Monkey Kidney Epithelial Cells)
[2] = test system: SARS-CoV-2; type: cell-based
[3] = test system: SARS-CoV-2; assay: Virucide activity against SARS-CoV-2, plaque assay; type: cell-based; details: scheme B+C; for SARS-CoV-2 infectivity reduced by: plaque assay
[4] = test system: canine herpes virus, CHV-1; assay: Antiviral checkerboard assay, Cf2Th cells infected with canine herpes virus CHV-1; type: cell-based
Method: This antiviral activity was evaluated using Cf2Th cells (canine thymocytes) infected with canine herpes virus, CHV-1.
Briefly, the Cf2Th cells were plated at a concentration of 5×10^5 cells/mL in 96-well multiwells (100 μL/well) and incubated at 37° C. in an atmosphere with 5% CO2.
Upon reaching about 90% confluence (48 h incubation), the medium was aspirated from each well, and replaced with 100 μL fresh medium containing a final virus concentration equal to 1×10^3 UFP/mL, and different concentrations of Lactoferricin and Grape Seed extract.
In particular, the different combinations between the two compounds had been previously prepared by crossing serial dilutions of the same, according to the protocol defined “broth microdilution checkerboard method”.
The cells were left in co-incubation with the virus and the compounds under examination for 48 h (37° C. -5% CO2).
At the end of the incubation, the wells characterized by a cell lysis given by the viral infection were discriminated from those in which the virus was inhibited by the compounds and therefore with viable cells. This evaluation was carried out both by direct observation under the microscope and by staining with methylene blue. […]
To determine the actual presence of synergy between the two compounds, the ratio below was calculated, defined as the FIC Index (FIC I). […]

## polylysine [PREP 3]
[1]
  CC10: >0.40 mg/mL
[2]
  antiviral effect: No antiviral effect
  virus inhibition (antiviral and virucide activities): more than 90%
  ΔCt, dose-dependent antiviral effect: −1.80 to −5.22
[2]; addition of a third dose (scheme B+C+D)
  antiviral effect: slight effect
[2]; scheme B+C
  decrease in the viral replication: more than 1 log
  maximum inhibition of the virus replication: 93%
[2]; schemes A, B and C
  antiviral effect: no effect
[3]; 0.05 mg/ml
  SARS-CoV-2 infectivity reduced by: 20%
  percentage of virus replication compared to untreated infected cells: 80%
[3]; 0.1 mg/ml
  SARS-CoV-2 infectivity reduced by: 30.2%
[3]; 0.10 mg/ml
  percentage of virus replication compared to untreated infected cells: 69.8%
[3]; 0.20 mg/ml
  SARS-CoV-2 infectivity reduced by: 48.8%
  percentage of virus replication compared to untreated infected cells: 51.2%
[3]; 0.40 mg/ml
  SARS-CoV-2 infectivity reduced by: 96.3%
  percentage of virus replication compared to untreated infected cells: 3.7%

## CCN(CC)CCCC(C)Nc1ccnc2cc(Cl)ccc12 (centres unmarked) [Chloroquine, chloroquine, reference compound]
[1]; Vero cells, 72 h, MTT
  CC10: 20.93 ± 4.39 µM

## Lactoferricin
[4]; CHV-1, 48 h co-incubation
  Minimum Antiviral Concentration Compound alone: 3.125%
[4]; in association with Grape Seed Extract, CHV-1, 48 h
  Minimum Antiviral Concentration Compound in association: 0.781%

## lactoferrin/lactoferricin [PREP 1]
[1]; Vero cells, 72 h, MTT
  CC10: >4.06* mg/ml
  CC50: >4.06* mg/ml
[1]; Vero cells, based on CC50/CC10 data
  maximum nontoxic concentration (assumed): 4.06 mg/mL
[2]; 1.02 mg/ml, scheme A (preincubation of virus with compound)
  Mean ΔCt: 0.16
[2]; 1.02 mg/ml, scheme B+C (during and after inoculum)
  Mean ΔCt: −0.48
[2]; 1.02 mg/ml, scheme B+C+D (during, after inoculum and repeated)
  Mean ΔCt: −0.59
[2]; 2.03 mg/ml, scheme A (preincubation of virus with compound)
  Mean ΔCt: 0.36
[2]; 2.03 mg/ml, scheme B+C (during and after inoculum)
  Mean ΔCt: −0.50
[2]; 2.03 mg/ml, scheme B+C+D (during, after inoculum and repeated)
  Mean ΔCt: −1.11
[2]; 4.06 mg/ml, scheme A (preincubation of virus with compound)
  Mean ΔCt: 0.52
[2]; 4.06 mg/ml, scheme B+C (during and after inoculum)
  Mean ΔCt: −2.90
[2]; 4.06 mg/ml, scheme B+C+D (during, after inoculum and repeated)
  Mean ΔCt: −3.64
[2]; high dose, added after the inoculum, one or twice
  mean ΔCt over schemes C, B+C and B+C+D: −3.3
